In patent US20220298146A1, “HETEROCYCLIC DERIVATIVE AND USE THEREOF” (Transthera Sciences (Nanjing), Inc., priority 2019, published 2022):
pIC50: −log10 of the molar value.

What was measured:
H1299 cell pAxl = target: T1, H1299 cell pAxl (Homo sapiens, UniProt P30530); test: Inhibitory activity on cell pAxl (H1299 cells, hGAS6 stimulation, Western Blot); format: cell-based; details: hGAS6 200 ng/mL, tested at 1.1, 3.3, 10 and 30 nM, read-out: Inhibitory Activity on Cell pAx1, IC50
T1 construct: endogenous in cells; host or cells: H1299
T1 sequence (P30530 26-894): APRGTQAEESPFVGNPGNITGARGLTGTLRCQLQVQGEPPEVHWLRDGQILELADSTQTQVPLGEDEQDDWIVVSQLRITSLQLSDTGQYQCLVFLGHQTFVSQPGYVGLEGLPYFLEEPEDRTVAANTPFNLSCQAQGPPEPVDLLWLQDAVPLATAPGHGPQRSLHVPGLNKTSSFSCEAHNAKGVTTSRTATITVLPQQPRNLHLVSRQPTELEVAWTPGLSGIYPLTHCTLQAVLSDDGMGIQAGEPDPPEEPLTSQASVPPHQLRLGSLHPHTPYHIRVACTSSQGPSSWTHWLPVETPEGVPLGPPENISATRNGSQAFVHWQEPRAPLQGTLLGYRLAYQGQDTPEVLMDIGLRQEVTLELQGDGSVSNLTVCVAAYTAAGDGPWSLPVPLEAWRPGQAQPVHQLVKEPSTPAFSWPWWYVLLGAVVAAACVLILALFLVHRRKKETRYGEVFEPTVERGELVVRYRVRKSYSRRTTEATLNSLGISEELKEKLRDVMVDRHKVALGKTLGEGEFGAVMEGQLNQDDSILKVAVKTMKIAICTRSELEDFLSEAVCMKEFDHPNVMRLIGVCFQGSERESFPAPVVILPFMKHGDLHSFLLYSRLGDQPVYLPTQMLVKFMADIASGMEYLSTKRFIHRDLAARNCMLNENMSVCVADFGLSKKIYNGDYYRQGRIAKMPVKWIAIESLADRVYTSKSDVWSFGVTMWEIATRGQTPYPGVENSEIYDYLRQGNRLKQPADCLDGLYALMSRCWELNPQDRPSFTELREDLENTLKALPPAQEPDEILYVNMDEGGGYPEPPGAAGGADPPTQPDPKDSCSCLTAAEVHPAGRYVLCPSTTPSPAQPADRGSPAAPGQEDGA
Description: H1299 is a non-small cell lung cancer cell.
Test samples: the compounds of the present invention, having structures shown above.
Test instruments: protein electrophoresis apparatus (made by Bio Rad), membrane transfer apparatus (made by Bio Rad), exposure apparatus (made by Tanon), and CO2 cell incubator (made by Thermo).
H1299 cells were inoculated into a 6-well plate (containing 10% FBS 1640 medium, 5×10^5 cells per well) and adherently cultivated at 37° C. and 5% CO2 for 18 h. The cells were starved overnight, and compounds with different concentrations were added. The compounds had final concentrations of 1.1 nM, 3.3 nM, 10 nM and 30 nM, with DMSO having a final concentration of 1‰. There was a medium containing 10‰ DMSO in the negative control well. The cells were incubated at 37° C. and 5% CO2 for 60 min, and then hGAS6 (R&D, final concentration: 200 ng/mL) was added to each well. The cells were further incubated for 60 min, and then the total protein of the cells was extracted for Western Blot experiment. IC50 values were calculated with GraphPad 5.0 software, and the inhibitory activities of the compounds on cell pAxl were detected.

LCK (h) = target: T2, LCK (h) (Homo sapiens, UniProt P06239); test: Enzymatic activity assay, LCK (h) kinase, [γ-33P]-ATP; format: biochemical; details: 10 μM [γ-33P]-ATP, 40 min, room temperature; read-out: Inhibitory Activity on LCK (h) kinase, IC50
T2 construct: purchased
T2 sequence (P06239 whole entry): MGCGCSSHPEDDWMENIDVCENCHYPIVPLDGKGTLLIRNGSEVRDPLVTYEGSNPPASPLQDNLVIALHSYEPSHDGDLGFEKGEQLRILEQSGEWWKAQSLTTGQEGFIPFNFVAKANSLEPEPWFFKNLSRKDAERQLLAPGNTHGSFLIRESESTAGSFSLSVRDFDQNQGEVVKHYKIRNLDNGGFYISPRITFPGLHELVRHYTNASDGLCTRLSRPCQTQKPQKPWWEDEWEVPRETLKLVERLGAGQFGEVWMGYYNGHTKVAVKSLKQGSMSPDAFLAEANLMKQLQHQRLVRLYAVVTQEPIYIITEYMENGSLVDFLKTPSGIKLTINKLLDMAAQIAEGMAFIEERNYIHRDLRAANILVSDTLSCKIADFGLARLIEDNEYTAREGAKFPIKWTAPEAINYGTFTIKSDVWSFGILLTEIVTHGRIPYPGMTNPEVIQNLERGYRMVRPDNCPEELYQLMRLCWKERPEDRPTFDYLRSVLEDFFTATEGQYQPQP
Description: (§1) Test samples: the compounds of the present invention, having structures and preparation methods shown above.
Preparation of Compound Stock Solutions:
(§2) Compounds were each dissolved in 100% DMSO to prepare stock solutions with a maximum concentration of 500 μM.
Preparation of Compound Working Solutions:
(§3) The compound stock solutions were diluted to final concentrations of 500 μM, 150 μM, 50 μM, 15 μM, 5 μM, 1.5 μM, 0.5 μM, 0.15 μM and 0.05 μM to prepare compound working solutions (50×).
Preparation of Different Enzymatic Reaction Solutions:
LCK (h) enzyme was dissolved in a mixture of 50 mM Tris (pH 7.5), 0.1 mM EGTA, 0.1 mM Na3VO4 and 250 μM KVEKIGEGTYGVVYK to prepare an enzyme solution with a final concentration of 45 nM. An Mg/ATP mixture of 10 mM magnesium acetate and 10 μM [γ-^33P]-ATP was used to activate the enzymatic reaction.
(§4) The compound working solutions were added to a 384-well plate, with final concentrations of 10000 nM, 3000 nM, 1000 nM, 300 nM, 100 nM, 30 nM, 10 nM, 3 nM and 1 nM, respectively, and then different enzymatic reaction solutions prepared according to the above conditions were added. The reaction solutions were incubated at room temperature for 40 min, and then 0.5% phosphoric acid solutions were added to terminate the reaction. 10 μL of the reaction solution was added dropwise to P30 filter paper which was washed 4 times with a 0.425% phosphoric acid solution and once with methanol and then placed in a scintillation counter for detection. Gray analysis was performed on the results with Image J software, and IC50 values were calculated with GraphPad 5.0 software.

Axl (h) = target: T3, Axl (h) (Homo sapiens, UniProt P30530); test: Enzymatic activity assay, Axl (h) kinase, [γ-33P]-ATP; format: biochemical; details: 10 μM [γ-33P]-ATP, 40 min, room temperature; read-out: Inhibitory Activity on Ax1 (h), IC50
T3 construct: purchased
T3 sequence (P30530 26-894): T1 sequence (P30530 26-894)
Description: as §1
(§5) (1) Preparation of Compound Stock Solutions
as §2
(§6) (2) Preparation of Compound Working Solutions
as §3
(3) Preparation of different enzymatic reaction solutions
Axl (h) enzyme was dissolved in a mixture of 8 mM MOPS (pH 7.0), 0.2 mM EDTA and 250 μM KKSRGDYMTMQIG to prepare an enzyme solution with a final concentration of 1.7 nM. An Mg/ATP mixture of 10 mM magnesium acetate and 10 μM [γ-^33P]-ATP was used to activate the enzymatic reaction.
as §4

Ron (h) = target: T4, Ron (h) (Homo sapiens, UniProt Q04912); test: Enzymatic activity assay, Ron (h) kinase, [γ-33P]-ATP; format: biochemical; details: 10 μM [γ-33P]-ATP, 40 min, room temperature; read-out: Inhibitory Activity on Ron (h) kinase, IC50
T4 construct: purchased
T4 sequence (Q04912 25-1400): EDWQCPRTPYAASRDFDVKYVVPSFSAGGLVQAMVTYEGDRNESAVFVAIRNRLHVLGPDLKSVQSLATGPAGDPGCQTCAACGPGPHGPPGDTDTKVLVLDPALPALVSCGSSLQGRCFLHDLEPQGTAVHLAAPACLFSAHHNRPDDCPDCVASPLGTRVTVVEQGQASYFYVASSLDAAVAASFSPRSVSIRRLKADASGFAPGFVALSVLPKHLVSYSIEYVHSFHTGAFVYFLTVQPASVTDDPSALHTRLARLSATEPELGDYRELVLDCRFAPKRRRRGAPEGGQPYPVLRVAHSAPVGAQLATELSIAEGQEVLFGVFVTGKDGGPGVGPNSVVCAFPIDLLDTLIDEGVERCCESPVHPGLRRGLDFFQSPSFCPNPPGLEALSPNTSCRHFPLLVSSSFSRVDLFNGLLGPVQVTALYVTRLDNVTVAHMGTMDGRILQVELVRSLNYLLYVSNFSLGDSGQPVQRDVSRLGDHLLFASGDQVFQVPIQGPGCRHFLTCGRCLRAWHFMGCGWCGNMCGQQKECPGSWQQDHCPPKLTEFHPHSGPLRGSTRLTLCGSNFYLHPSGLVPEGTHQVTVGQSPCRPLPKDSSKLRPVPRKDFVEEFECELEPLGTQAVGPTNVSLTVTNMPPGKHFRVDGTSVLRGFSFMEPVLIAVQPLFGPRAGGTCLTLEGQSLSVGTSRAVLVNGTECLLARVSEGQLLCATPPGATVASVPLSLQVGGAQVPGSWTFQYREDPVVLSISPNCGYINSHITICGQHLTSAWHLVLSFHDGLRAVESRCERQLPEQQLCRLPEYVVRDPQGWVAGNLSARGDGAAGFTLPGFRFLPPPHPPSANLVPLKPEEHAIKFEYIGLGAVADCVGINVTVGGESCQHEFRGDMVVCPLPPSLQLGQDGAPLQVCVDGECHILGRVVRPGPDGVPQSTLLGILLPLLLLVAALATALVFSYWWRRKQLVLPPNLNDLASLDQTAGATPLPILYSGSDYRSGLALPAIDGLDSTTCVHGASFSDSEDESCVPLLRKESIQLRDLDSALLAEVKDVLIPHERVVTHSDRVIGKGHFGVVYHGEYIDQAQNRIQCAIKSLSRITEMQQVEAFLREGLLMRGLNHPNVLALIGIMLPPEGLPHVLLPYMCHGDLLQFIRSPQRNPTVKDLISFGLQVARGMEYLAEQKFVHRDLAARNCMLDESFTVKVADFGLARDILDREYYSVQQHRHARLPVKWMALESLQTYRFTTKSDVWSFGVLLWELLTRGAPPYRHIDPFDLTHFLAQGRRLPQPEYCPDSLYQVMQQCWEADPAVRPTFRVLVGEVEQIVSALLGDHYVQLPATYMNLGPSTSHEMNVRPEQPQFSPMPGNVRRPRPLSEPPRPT
Description: as §1, §5, §2, §6, §3
(3) Preparation of Different Enzymatic Reaction Solutions
Ron (h) enzyme was dissolved in a mixture of 8 mM MOPS (pH 7.0), 0.2 mM EDTA and 250 μM GGMEDIYFEFMGGKKK to prepare an enzyme solution with a final concentration of 40.4 nM. An Mg/ATP mixture of 10 mM magnesium acetate and 10 μM [γ-^33P]-ATP was used to activate the enzymatic reaction.
as §4

SMILES	pIC50 (H1299 cell pAxl)	pIC50 (LCK (h))	pIC50 (Axl (h))	pIC50 (Ron (h))
CC(C)n1cc(-c2ccc(F)cc2)c(=O)c(C(=O)Nc2ccc(Oc3cc4cnn(C)c4cc3-c3cn[nH]c3)cn2)n1 [Compound 1, 5-(4-fluorophenyl)-1-isopropyl-N-(5-((1-methyl-6-(1H-pyrazol-4-yl)-1H-indazol-5-yl)oxy)pyridin-2-yl)-4-oxo-1,4-dihydropyridazine-3-carboxamide]	8.96			
Nc1nccc(Oc2ncc(NC(=O)c3nn(C4CC4)cc(-c4ccc(F)cc4)c3=O)cn2)c1Cl [Compound 20, N-(2-((2-amino-3-chloropyridin-4-yl)oxy)pyrimidin-5-yl)-1-cyclopropyl-5-(4-fluorophenyl)-4-oxo-1,4-dihydropyridazine-3-carboxamide]	7.52 to 8.00	5.65	7.77	
CC(C)n1cc(C(=O)Nc2ccc(Oc3ccnc(N)c3Cl)nc2)c(=O)c(-c2ccc(F)cc2)n1 [Compound 23, N-(6-((2-amino-3-chloropyridin-4-yl)oxy)pyridin-3-yl)-6-(4-fluorophenyl)-2-isopropyl-5-oxo-2,5-dihydropyridazine-4-carboxamide]		< 5.00	7.52	7.04

Further lines, results first:

pIC50 (H1299 cell pAxl)	pIC50 (LCK (h))	pIC50 (Axl (h))	pIC50 (Ron (h))	SMILES
	6.24	7.80		CC(C)n1cc(-c2ccc(F)cc2)c(=O)c(C(=O)Nc2cnc(Oc3ccnc(N)c3Cl)nc2)n1 [Compound 16, N-(2-((2-amino-3-chloropyridin-4-yl)oxy)pyrimidin-5-yl)-5-(4-fluorophenyl)-1-isopropyl-4-oxo-1,4-dihydropyridazine-3-carboxamide]
	5.97	7.89		C=CCn1cc(-c2ccc(F)cc2)c(=O)c(C(=O)Nc2cnc(Oc3ccnc(N)c3Cl)nc2)n1 [Compound 40, 1-allyl-N-(2-((2-amino-3-chloropyridin-4-yl)oxy)pyrimidin-5-yl)-5-(4-fluorophenyl)-4-oxo-1,4-dihydropyridazine-3-carboxamide]
